Consider one substance from patent publication US12480846B2, “Multi-mode separation for target detection and cell growth monitoring” (THE REGENTS OF THE UNIVERSITY OF MICHIGAN, priority 2012, dated 2025).

This assay relates to E. coli O157:H7. As to the kind of experiment: Solid-interface AMBR biosensor measurement of bacterial growth in 384 well plate. Conditions: antibiotic above the MIC in the surrounding media, 0.5 μg/ml gentamicin. It counts as cell-based. The source says:
In previous AMBR applications at air-water and/or oil-water interfaces, the rotation period of the sensor slows down in response to bacterial growth; however, on solid interfaces there is an additional “dip” in the beginning of the data. Typical results for measuring bacterial growth, using the solid interface AMBR method are shown in FIG. 11, where the initial speeding up and then slowing down can be seen. […] This is true since the dip (or the slowing down) was not seen in wells with the same amount of bacteria, but that lacked nutrients (performed in PBS buffer), or contained antibiotics above the minimum inhibition concentrations.
Laboratory measurements have established that the speeding up happens with motile and non-motile, gram-negative and gram-positive cells, and with rod-like and coccal bacteria. […]
Anti-E. coli O157 functionalized, 2.8 μm diameter magnetic particles (20 μl, Invitrogen 710-03) were mixed with bacteria diluted to 10^4 CFU/ml (0.9 ml), and allowed to incubate (10 min at 37° C.) with end-over-end agitation. […] For colony counting, the samples were diluted appropriately, plated on a MH plate and the colonies were counted 18 hours later to obtain accurate bacterial concentrations and magnetic separation capture efficiencies. […]

With gentamicin, the “change in rotational period of AMBR biosensor (bacterial growth response)” value is “no change in rotational period”.
